The source of these data is US20100105722A1, “Substituted 4,5,6,7-tetrahydrothienopyridines as KCNQ2/3 Modulators” (GRUENENTHAL GmbH, priority 2008, published 2010).

Experiment [1] addresses T1, hKCNQ2/3 (Homo sapiens, UniProt O43525+O43526).
T1 construct: expressed in transfected cells; host or cells: CHO-K1
The experiment in a line: Fluorescence assay using a voltage sensitive dye (fluorimetry). The conditions noted are these: for Emax at 10 µM: relative to retigabine = 100%. The class given is cell-based. The procedure: Fluorescence Assay using a Voltage Sensitive Dye
Human CHO-K1 cells expressing KCNQ2/3 channels are cultivated adherently at 37° C., 5% CO2 and 95% humidity in cell culture bottles (e.g. 80 cm^2 TC flasks, Nunc) with DMEM-high glucose (Sigma Aldrich, D7777) including 10% FCS (PAN Biotech, e.g. 3302-P270521) or alternatively MEM Alpha Medium (1×, liquid, Invitrogen, #22571), 10% fetal calf serum (FCS) (Invitrogen, #10270-106, heat-inactivated) and the necessary selection antibiotics.
Before being sown out for the measurements, the cells are washed with a 1×DPBS buffer without Ca^2+/Mg^2+ (e.g. Invitrogen, #14190-094) and detached from the bottom of the culture vessel by means of Accutase (PAA Laboratories, #L11-007) (incubation with Accutase for 15 min at 37° C.). The cell count then present is determined using a CASY™ cell counter (TCC model, Schärfe System) in order subsequently to apply, depending on the density optimization for the individual cell line, 20,000-30,000 cells/well/100 μl of the described nutrient medium to 96-well measuring plates of the Corning™ CellBIND™ type (Flat Clear Bottom Black Polystyrene Microplates, #3340). Incubation is then carried out for one hour at room temperature, without gassing or adjusting the humidity, followed by incubation for 24 hours at 37° C., 5% CO2 and 95% humidity.
The voltage-sensitive fluorescent dye from the Membrane Potential Assay Kit (Red™ Bulk format part R8123 for FLIPR, MDS Analytical Technologies™) is prepared by dissolving the contents of a vessel Membrane Potential Assay Kit Red Component A in 200 ml of extracellular buffer (ES buffer, 120 mM NaCl, 1 mM KCl, 10 mM HEPES, 2 mM CaCl2, 2 mM MgCl2, 10 mM glucose; pH 7.4). After removal of the nutrient medium, the cells are washed with 200 μl of ES buffer, then covered with a layer of 100 μl of the dye solution prepared above and incubated for 45 min at room temperature with the exclusion of light.
The fluorescence measurements are carried out with a BMG Labtech FLUOstar™, BMG Labtech NOVOstar™ or BMG Labtech POLARstar™ instrument (525 nm excitation, 560 nm emission, Bottom Read mode). After incubation of the dye, 50 μl of the test substances in the desired concentrations, or 50 μl of ES buffer for control purposes, are introduced into separate cavities of the measuring plate and incubated for 30 min at room temperature while being shielded from light. The fluorescence intensity of the dye is then measured for 5 min and the fluorescence value F1 of each well is thus determined at a given, constant time. 15 μl of a […] KCl solution ([…]) are then added to each well. The change in fluorescence is subsequently measured until all the relevant measured values have been obtained (mainly 5-30 min). At a given time after KCl application, a fluorescence value F2 is determined, in this case at the time of the fluorescence peak.
For calculation, the fluorescence intensity F2 is compared with the fluorescence intensity F1, and the agonistic activity of the target compound on the potassium channel is determined therefrom. F2 and F1 are calculated as follows: […]
In order to determine whether a substance has agonistic activity, […]
for example, can be compared with […]
is determined by adding to the reaction batch only the buffer solution instead of the test substance, determining the value F1K of the fluorescence intensity, adding the potassium ions as described above, and measuring a value F2K of the fluorescence intensity. F2K and F1K are then calculated as follows: […]
A substance has an agonistic activity on the potassium channel when […]
Independently of the comparison of […]
it is possible to conclude that a target compound has agonistic activity if an increase in […]
is to be observed as the dosage of the target compound increases.
Calculations of EC50 and IC50 values are carried out with the aid of ‘Prism v4.0’ software (GraphPad Software™).

The test system of experiment [2] is formalin-induced nociceptive behavior. The experiment in a line: Formalin test in the rat (phase II, chronic pain component). The class given is in vivo. The note with it: for Formalin test rat i.v. % reduction in nociceptive behavior: phase II, Table 3; for Formalin test rat i.v. @ 10 mg/kg % reduction in noiceptive behavior: comparison experiments table. The method, then:
Formalin Test in the Rat The formalin test (Dubuisson, D. and Dennis, S. G., 1977, Pain, 4, 161-174) represents a model for both acute and chronic pain. In the studies presented here, the chronic pain component (phase II of the formalin test; time period 21-27 min after formalin administration) was evaluated. A biphase nociceptive reaction is induced in freely mobile test animals by a single formalin injection into the dorsal side of a rear paw, the reaction being detected by observation of three clearly distinguishable behavior patterns. Formalin is administered subcutaneously into the dorsal side of the right rear paw of each animal in a volume of 50 μl and a concentration of 5%. The vehicle and the test substances are administered intravenously 5 min, or orally 30 min, before the formalin injection. The specific changes in behavior, such as lifting and shaking of the paw, weight displacement of the animal and biting and licking reactions, are observed and recorded continuously up to 60 min after the formalin administration. […] Rats of the strain Sprague Dawley (Janvier, Belgium) are used as the animal strain. The weight of the animals is 180-200 g; the size of the group was n=10.

Experiment [3] concerns the target T1, hKCNQ2/3. The experiment in a line: Voltage clamp (patch-clamp) measurements on stably transfected hKCNQ2/3 CHO-K1 cell line. The class given is cell-based. The note with it: at -40 mV, relative to retigabine (10 μM) = 100%, read-out: patch-clamp % Efficacy @ 10 μM (retigabine = 100%). The procedure: Voltage Clamp Measurements
In order to confirm a KCNQ2/3-agonistic action of the substances electro-physiologically, patch-clamp measurements (Hamill O P, Marty A, Neher E, Sakmann B, Sigworth F J.: Improved patch-clamp techniques for high-resolution current recording from cells and cell-free membrane patches, Pflugers Arch. 1981 August; 391(2):85-100) were carried out in voltage clamp mode on a stably transfected hKCNQ2/3 CHO-K1 cell line. After formation of the gigaseal, the cells were first clamped at a holding potential of −60 mV. Thereafter, depolarizing voltage jumps were applied up to a potential of +20 mV (increment: 20 mV, duration: 1 second) in order to confirm the functional expression of KCNQ2/3-typical currents. The testing of the substances was carried out at a potential of −40 mV. The increase in current induced by retigabine (10 μM) at −40 mV was first recorded as a positive control on each cell. After complete washing out of the retigabine effect (duration: 80 s), the test substance (10 μM) was applied. The increase in current induced by the test substance was standardized to the retigabine effect and indicated as the relative efficacy (see below).

Setting [4] is: CHO-K1, 10 μM, CHO-K1 cells expressing KCNQ2/3, Table 3, read-out: Fluorimetry % Efficacy @ 10 μM (reti-gabine = 100%).
Where [5] appears, read: CHO-K1 cells expressing KCNQ2/3, Table 3.
Setting [6] is: 10 μM, comparison experiments table, read-out: Fluorimetry % Efficacy @ 10 μM (retigabine = 100%).

Molecules are shown by their SMILES.

As to `Cc1ccccc1C1c2ccsc2CCN1C(=O)CCC(=O)NCc1cccc(C(F)(F)F)c1` (stereo not drawn) [compound 8], the Emax at 10 µM on hKCNQ2/3 [1] (setting [4]) was found to be 148%. Moreover, the half-maximal effective concentration (EC50) at hKCNQ2/3 [1] (setting [5]) turned out to be 79 nM. For the same compound, the “Formalin test rat i.v. % reduction in nociceptive behavior” value (from here on “Formalin test rat i.v. % reduction”) in experiment [2] (dose 4.64 mg/kg) is reported as 11 (4.64) %.

Regarding `O=C(CCC(=O)N1CCc2sccc2C1c1ccccc1)NCc1ccccc1C(F)(F)F` (stereo not drawn) [compound 17], the Emax at 10 µM on hKCNQ2/3 [1] (setting [4]) was found to be 74%. On hKCNQ2/3 [1] (setting [5]), this compound displayed a concentration for a half-maximal effect (EC50) of 62 nM. Further, in experiment [2] (dose 10.0 mg/kg), the “Formalin test rat i.v. % reduction” value is 15 (10.0) %.

`O=C(CCC(=O)N1CCc2sccc2C1C1CC1)NCc1cccc(C(F)(F)F)c1` (stereo not drawn) [compound 260] had an EC50 at hKCNQ2/3 [1] (setting [5]) of 108 nM. In addition, on hKCNQ2/3 [3], the Emax at 10 µM amounted to 91%. Also, the “Formalin test rat i.v. % reduction” value in experiment [2] (dose 4.64 mg/kg) was 46 (4.64) %.

`O=C(CCC(=O)N1CCc2sccc2C1c1ccccc1)NCc1ccc(F)c(C(F)(F)F)c1` (stereo not drawn) [compound 250] showed an EC50 at hKCNQ2/3 [1] (setting [5]) of 517 nM.

Turning to `O=C(CCC(=O)N1CCc2sccc2C1c1ccccc1)N1CCc2c(cccc2C(F)(F)F)C1` (stereo not drawn) [compound 271], the EC50 at hKCNQ2/3 [1] (setting [5]) was 431 nM.

For the compound `O=C(CCC(=O)N1CCc2sccc2C1c1ccccc1)NCc1cccc(C(F)(F)F)c1` (stereo not drawn) [Illustrative compound 2, 4-oxo-4-(4-phenyl-6,7-dihydrothieno[3,2-c]pyridin-5(4H)-yl)-N-(3-(trifluoromethyl)benzyl)butanamide], the Emax at 10 µM was determined as 145% on hKCNQ2/3 [1] (setting [6]), 165% on hKCNQ2/3 [1] (setting [4]) and 106% at hKCNQ2/3 [3]. Moreover, the figures for the EC50 at hKCNQ2/3 [1] (setting [5]) and on hKCNQ2/3 [1] (comparison experiments table) were 758 nM and 1440 nM, respectively. Also, the “Formalin test rat i.v. @ 10 mg/kg % reduction in noiceptive behavior” value in experiment [2] came out at 56%. Further, the “Formalin test rat i.v. % reduction” value in experiment [2] (dose 10.0 mg/kg) is listed as 56 (10.0) %.

`O=C(CCC(=O)N1CCc2sccc2C1c1ccccc1)NCc1cccc(C(F)(F)F)c1` (stereo not drawn) [compound 35] returned an EC50 on hKCNQ2/3 [1] (setting [5]) of 572 nM.

Compound `CC(C)c1ccccc1C1c2ccsc2CCN1C(=O)CCC(=O)NCc1cccc(C(F)(F)F)c1` (stereo not drawn) [compound 252] registered a concentration giving a half-maximal response (EC50) on hKCNQ2/3 [1] (setting [5]) of 1010 nM.

For `O=C(CCC(=O)N1CCc2sccc2C1c1ccccc1F)NCc1cccc(C(F)(F)F)c1` (stereo not drawn) [compound 6], the Emax at 10 µM on hKCNQ2/3 [1] (setting [4]) stood at 133%. Also, the EC50 on hKCNQ2/3 [1] (setting [5]) came to 284 nM.

`O=C(CCC(=O)N1CCc2sccc2C1c1ccccc1)NCCc1ccccc1` (stereo not drawn) [compound 25]: the Emax at 10 µM on hKCNQ2/3 [1] (setting [4]) was found to be 12%.

In the case of `Cc1ccc(C2c3ccsc3CCN2C(=O)CCC(=O)NCc2ccncc2)cc1` (stereo not drawn) [compound 50], on hKCNQ2/3 [1] (setting [4]), the Emax at 10 µM was determined as 10%.

Take `O=C(CCC(=O)N1CCc2sccc2C1c1ccccc1)NCc1cccc(C(F)(F)F)c1` (stereo not drawn) [compound 36]: on hKCNQ2/3 [1] (setting [5]), the concentration giving a half-maximal response (EC50) is 707 nM.

Turning to `O=C(CCC(=O)N1CCc2sccc2C1C1CCCCC1)NCc1cccc(C(F)(F)F)c1` (stereo not drawn) [compound 21], the Emax at 10 µM on hKCNQ2/3 [1] (setting [4]) was 148%. This compound returned an EC50 on hKCNQ2/3 [1] (setting [5]) of 324 nM.

Regarding `Cc1ccc(C2c3ccsc3CCN2C(=O)CCC(=O)NCc2ccccc2)cc1` (stereo not drawn) [compound 48], the Emax at 10 µM at hKCNQ2/3 [1] (setting [4]) was -15%.

For the compound `Cc1cccc(C2c3ccsc3CCN2C(=O)CCC(=O)NCc2ccccn2)c1` (stereo not drawn) [compound 54], the Emax at 10 µM at hKCNQ2/3 [1] (setting [4]) came out at 19%.

For the compound `O=C(CCC(=O)N1CCc2sccc2C1c1ccccc1)N1CCc2ccc(C(F)(F)F)cc2C1` (stereo not drawn) [compound 269], the EC50 on hKCNQ2/3 [1] (setting [5]) was determined as 519 nM.

`O=C(CCC(=O)N1CCc2sccc2C1c1cccs1)NCc1cccc(C(F)(F)F)c1` (stereo not drawn) [compound 1]: the Emax at 10 µM at hKCNQ2/3 [1] (setting [6]) was found to be 165%; at hKCNQ2/3 [1] (setting [4]), 168%; on hKCNQ2/3 [3] it was 97%. For the same compound, the EC50 at hKCNQ2/3 [1] (setting [5]) was 1690 nM; on hKCNQ2/3 [1] (comparison experiments table) it was 760 nM.

For `O=C(CCC(=O)N1CCn2cccc2C1c1ccccc1)NCc1cccc(C(F)(F)F)c1` (stereo not drawn) [Example No. 2 of WO 2008/046582, reference compound], at hKCNQ2/3 [1] (setting [6]), the Emax at 10 µM came to 115%. In addition, a half-maximal response at hKCNQ2/3 [1] (comparison experiments table) (EC50) required 2810 nM. Besides, the “Formalin test rat i.v. @ 10 mg/kg % reduction in noiceptive behavior” value in experiment [2] was “no effect”.

The compound `O=C(CCC(=O)N1CCc2sccc2C1c1ccccc1)NCC1CCCCC1` (stereo not drawn) [compound 247] returned an EC50 on hKCNQ2/3 [1] (setting [5]) of 1440 nM.
